What follows are compounds tested against T1, BTK (Homo sapiens, UniProt Q06187) (assay: In vitro BTK kinase assay: BTK-POLYGAT-LS ASSAY). Conditions: ATP 10 uM.
T1 construct: purchased Upstate 14-552
Type: biochemical
Experimental: In vitro BTK kinase assay: BTK-POLYGAT-LS ASSAY. The purpose of the BTK in vitro assay is to determine compound potency against BTK through the measurement of IC50. […] A 24 μL aliquot of a ATP/peptide master mix (final concentration; ATP 10 μM, polyGAT 100 nM) in kinase buffer (10 mM Tris-HCl pH 7.5, 10 mM MgCl2, 200 μM Na3VO4, 5 mM DTT, 0.01% Triton X-100, and 0.2 mg/ml Casein) is added to each well. […] The assay is incubated for 30 minutes before being stopped with 28 μL of a 50 mM EDTA solution. […] The plate is covered and incubated for 45 minutes at room temperature. Time resolved fluorescence (TRF) on Molecular Devices M5 (332 nm excitation; 488 nm emission; 518 nm fluorescein emission) is measured.

T1 sequence (Q06187 whole entry): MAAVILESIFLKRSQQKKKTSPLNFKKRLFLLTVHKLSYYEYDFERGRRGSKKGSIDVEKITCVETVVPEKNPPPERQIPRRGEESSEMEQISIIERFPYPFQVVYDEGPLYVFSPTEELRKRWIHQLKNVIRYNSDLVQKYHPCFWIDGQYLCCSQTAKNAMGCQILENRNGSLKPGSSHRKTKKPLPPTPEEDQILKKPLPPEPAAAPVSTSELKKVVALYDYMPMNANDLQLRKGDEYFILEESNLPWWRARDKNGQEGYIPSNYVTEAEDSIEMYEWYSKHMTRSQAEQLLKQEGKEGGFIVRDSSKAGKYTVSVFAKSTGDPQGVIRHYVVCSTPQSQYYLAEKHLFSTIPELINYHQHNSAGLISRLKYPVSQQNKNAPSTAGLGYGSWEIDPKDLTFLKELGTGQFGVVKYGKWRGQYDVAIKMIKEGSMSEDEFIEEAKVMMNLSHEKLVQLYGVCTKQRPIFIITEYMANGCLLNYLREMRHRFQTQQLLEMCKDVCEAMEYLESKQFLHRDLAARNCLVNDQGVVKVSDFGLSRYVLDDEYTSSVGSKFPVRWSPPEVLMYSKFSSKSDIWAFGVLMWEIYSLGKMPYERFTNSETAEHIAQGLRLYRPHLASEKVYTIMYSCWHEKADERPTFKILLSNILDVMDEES

Row | IC50 [µM] | Structure (SMILES)
1 | > 10 | Cc1cc(NCC(=O)NC2CCCN(c3ncnc4[nH]ccc34)C2)n(C(C)(C)C)n1 (centres unmarked) [Example 58, (N-(1-(7H-pyrrolo[2,3-d]pyrimidin-4-yl)piperidin-3-yl)-2-(1-tert-butyl-3-methyl-1H-pyrazol-5-ylamino)acetamide)]
2 | > 10 | O=C(CNc1cccnc1)NC1CCCN(c2ncnc3[nH]ccc23)C1 (centres unmarked) [Example 59, (N-(1-(7H-pyrrolo[2,3-d]pyrimidin-4-yl)piperidin-3-yl)-2-(pyridin-3-ylamino)acetamide)]
3 | 1 to 10 | Cn1ccc(-c2cccc(NCC(=O)NC3CCCN(c4ncnc5[nH]ccc45)C3)c2)n1 (centres unmarked) [Example 60]
4 | 1 to 10 | CN(C)c1cccc(NCC(=O)NC2CCCN(c3ncnc4[nH]ccc34)C2)c1 (centres unmarked) [Example 61, (N-(1-(7H-pyrrolo[2,3-d]pyrimidin-4-yl)piperidin-3-yl)-2-(3-(dimethylamino)phenylamino)acetamide)]
5 | 0.1 to 0.999 | O=C(CNc1ccc(F)c(F)c1)NC1CCCN(c2ncnc3[nH]ccc23)C1 (centres unmarked) [Example 62, (N-(1-(7H-pyrrolo[2,3-d]pyrimidin-4-yl)piperidin-3-yl)-2-(3,4-difluorophenylamino)acetamide)]
6 | < 0.1 | O=C(CNc1cc(F)cc(C(F)(F)F)c1)NC1CCCN(c2ncnc3[nH]ccc23)C1 (centres unmarked) [Example 63, (N-(1-(7H-pyrrolo[2,3-d]pyrimidin-4-yl)piperidin-3-yl)-2-(3-fluoro-5-(trifluoromethyl)phenylamino)acetamide)]
7 | 0.1 to 0.999 | Cc1c(NCC(=O)NC2CCCN(c3ncnc4[nH]ccc34)C2)cccc1C(F)(F)F (centres unmarked) [Example 64, (N-(1-(7H-pyrrolo[2,3-d]pyrimidin-4-yl)piperidin-3-yl)-2-(2-methyl-3-(trifluoromethyl)phenylamino)acetamide)]
8 | 0.1 to 0.999 | Cc1ccc(NCC(=O)NC2CCCN(c3ncnc4[nH]ccc34)C2)cc1C(F)(F)F (centres unmarked) [Example 65, (N-(1-(7H-pyrrolo[2,3-d]pyrimidin-4-yl)piperidin-3-yl)-2-(4-methyl-3-(trifluoromethyl)phenylamino)acetamide)]
9 | 1 to 10 | N#Cc1ccccc1NCC(=O)NC1CCCN(c2ncnc3[nH]ccc23)C1 (centres unmarked) [Example 66, (N-(1-(7H-pyrrolo[2,3-d]pyrimidin-4-yl)piperidin-3-yl)-2-(2-cyanophenylamino)acetamide)]
10 | 0.1 to 0.999 | O=C(CNc1ccc(F)cc1F)NC1CCCN(c2ncnc3[nH]ccc23)C1 (centres unmarked) [Example 67, (N-(1-(7H-pyrrolo[2,3-d]pyrimidin-4-yl)piperidin-3-yl)-2-(2,4-difluorophenylamino)acetamide)]
11 | < 0.1 | O=C(CNc1cc(F)cc(F)c1)NC1CCCN(c2ncnc3[nH]ccc23)C1 (centres unmarked) [Example 68, (N-(1-(7H-pyrrolo[2,3-d]pyrimidin-4-yl)piperidin-3-yl)-2-(3,5-difluorophenylamino)acetamide)]
12 | 1 to 10 | O=C(CNc1cc(C(F)(F)F)ccc1F)NC1CCCN(c2ncnc3[nH]ccc23)C1 (centres unmarked) [Example 69, (N-(1-(7H-pyrrolo[2,3-d]pyrimidin-4-yl)piperidin-3-yl)-2-(2-fluoro-5-(trifluoromethyl)phenylamino)acetamide)]
13 | 0.1 to 0.999 | O=C(CNc1cccc(C(F)(F)F)c1F)NC1CCCN(c2ncnc3[nH]ccc23)C1 (centres unmarked) [Example 70, (N-(1-(7H-pyrrolo[2,3-d]pyrimidin-4-yl)piperidin-3-yl)-2-(2-fluoro-3-(trifluoromethyl)phenylamino)acetamide)]
14 | 0.1 to 0.999 | O=C(CNc1cccc(F)c1F)NC1CCCN(c2ncnc3[nH]ccc23)C1 (centres unmarked) [Example 71, (N-(1-(7H-pyrrolo[2,3-d]pyrimidin-4-yl)piperidin-3-yl)-2-(2,3-difluorophenylamino)acetamide)]
15 | 1 to 10 | O=C(CNC1CCCC1)NC1CCCN(c2ncnc3[nH]ccc23)C1 (centres unmarked) [Example 72]
16 | > 10 | N#Cc1ccc(NCC(=O)NC2CCCN(c3ncnc4[nH]ccc34)C2)cc1C(F)(F)F (centres unmarked) [Example 73, (N-(1-(7H-pyrrolo[2,3-d]pyrimidin-4-yl)piperidin-3-yl)-2-(4-cyano-3-(trifluoromethyl)phenylamino)acetamide)]
17 | 1 to 10 | O=C(CNc1ccc(F)c(C(F)(F)F)c1)NC1CCCN(c2ncnc3[nH]ccc23)C1 (centres unmarked) [Example 74, (N-(1-(7H-pyrrolo[2,3-d]pyrimidin-4-yl)piperidin-3-yl)-2-(4-fluoro-3-(trifluoromethyl)phenylamino)acetamide)]
18 | 1 to 10 | O=C(CNc1cccc2cn[nH]c12)NC1CCCN(c2ncnc3[nH]ccc23)C1 (centres unmarked) [Example 75]
19 | 0.1 to 0.999 | O=C(CNc1cccc2[nH]ncc12)NC1CCCN(c2ncnc3[nH]ccc23)C1 (centres unmarked) [Example 76, (2-(1H-indazol-4-ylamino)-N-(1-(7H-pyrrolo[2,3-d]pyrimidin-4-yl)piperidin-3-yl)acetamide)]
20 | 0.1 to 0.999 | O=C(CNc1cccc(-n2cccn2)c1)NC1CCCN(c2ncnc3[nH]ccc23)C1 (centres unmarked) [Example 77, (2-(3-(1H-pyrazol-1-yl)phenylamino)-N-(1-(7H-pyrrolo[2,3-d]pyrimidin-4-yl)piperidin-3-yl)acetamide)]
21 | 1 to 10 | Cn1ncc2c(NCC(=O)NC3CCCN(c4ncnc5[nH]ccc45)C3)cccc21 (centres unmarked) [Example 78, (N-(1-(7H-pyrrolo[2,3-d]pyrimidin-4-yl)piperidin-3-yl)-2-(1-methyl-1H-indazol-4-ylamino)acetamide)]
22 | > 10 | O=C(CNc1ccn(-c2ccccc2)n1)NC1CCCN(c2ncnc3[nH]ccc23)C1 (centres unmarked) [Example 79, (N-(1-(7H-pyrrolo[2,3-d]pyrimidin-4-yl)piperidin-3-yl)-2-(1-phenyl-1H-pyrazol-3-ylamino)acetamide)]
23 | 1 to 10 | Cn1ccc(NCC(=O)NC2CCCN(c3ncnc4[nH]ccc34)C2)n1 (centres unmarked) [Example 80, (N-(1-(7H-pyrrolo[2,3-d]pyrimidin-4-yl)piperidin-3-yl)-2-(1-methyl-1H-pyrazol-3-ylamino)acetamide)]
24 | 1 to 10 | O=C(CNc1cccc2cccnc12)NC1CCCN(c2ncnc3[nH]ccc23)C1 (centres unmarked) [Example 81, (N-(1-(7H-pyrrolo[2,3-d]pyrimidin-4-yl)piperidin-3-yl)-2-(quinolin-8-ylamino)acetamide)]
25 | 0.1 to 0.999 | O=C(CNc1cccc(SC(F)(F)F)c1)NC1CCCN(c2ncnc3[nH]ccc23)C1 (centres unmarked) [Example 82, (N-(1-(7H-pyrrolo[2,3-d]pyrimidin-4-yl)piperidin-3-yl)-2-(3-(trifluoromethylthio)phenylamino)acetamide)]
26 | 1 to 10 | O=C(CNc1cccc(N2CCOCC2)c1)NC1CCCN(c2ncnc3[nH]ccc23)C1 (centres unmarked) [Example 83, (N-(1-(7H-pyrrolo[2,3-d]pyrimidin-4-yl)piperidin-3-yl)-2-(3-morpholinophenylamino)acetamide)]
27 | 0.1 to 0.999 | Cc1cccc(NCC(=O)NC2CCCN(c3ncnc4[nH]ccc34)C2)c1C (centres unmarked) [Example 84, (N-(1-(7H-pyrrolo[2,3-d]pyrimidin-4-yl)piperidin-3-yl)-2-(2,3-dimethylphenylamino)acetamide)]
28 | 1 to 10 | O=C(CNc1ccccc1)N(Cc1ccccc1)C1CCCN(c2ncnc3[nH]ccc23)C1 (centres unmarked) [Example 86, (N-(1-(7H-pyrrolo[2,3-d]pyrimidin-4-yl)piperidin-3-yl)-N-benzyl-2-(phenylamino)acetamide)]
29 | 0.1 to 0.999 | O=C(CNc1ccccc1)N(CCc1ccccc1)C1CCCN(c2ncnc3[nH]ccc23)C1 (centres unmarked) [Example 87, (N-(1-(7H-pyrrolo[2,3-d]pyrimidin-4-yl)piperidin-3-yl)-N-phenethyl-2-(phenylamino)acetamide)]
